Test results published in ChEMBL document CHEMBL3352151, “In vitro and in vivo antibacterial evaluation and mechanistic study of ornithine based small cationic lipopeptides against antibiotic resistant clinical isolates” (Eur J Med Chem, 2014).
Values after ≈ are worked out from the molar mass of the structure shown.

Columns and labels:
Staphylococcus aureus [1] = assay: Antibacterial activity against Staphylococcus aureus PGI/DML03149 infected in Swiss albino mouse assessed as log reduction at 1 mg/kg administered twice at 1 hr and 5 hrs post infection relative to control; type: functional
Mus musculus [2] = assay: Toxicity in albino mouse assessed as death at 1 to 30 mg/kg, iv measured for 14 days; type: organism-based; parameters: dose 1-30 mg/kg, route intravenous; conditions: in vivo, 336 h
Staphylococcus aureus [3] = assay: Antibacterial activity against Staphylococcus aureus PGI/DML03149 infected in Swiss albino mouse assessed as log reduction at 5 mg/kg administered […] at 1 hr post infection relative to control; type: functional
Escherichia coli [4] = assay: Antibacterial activity against Escherichia coli PGI/DML02292 infected in Swiss albino mouse assessed as log reduction at 5 mg/kg administered at 1 hr post infection relative to control; type: functional
[5] = Toxicity in albino mouse assessed as mortality at 15 mg/kg, iv; type: organism-based; parameters: dose 15 mg/kg, route intravenous; conditions: in vivo
Haemophilus influenzae = assay: Antibacterial activity against clinical isolates of ciprofloxacin-resistant Haemophilus influenzae PGI/DML01744 after overnight incubation by microdilution broth assay; type: functional
Enterococcus faecalis = assay: Antibacterial activity against clinical isolates of Enterococcus faecalis GMCH/B0091 after overnight incubation by microdilution broth assay; type: functional
[6] = Toxicity in albino mouse assessed as mortality at 90 mg/kg, iv; type: organism-based; parameters: dose 90 mg/kg, route intravenous; conditions: in vivo
[7] = Toxicity in albino mouse assessed as mortality at 120 mg/kg, iv; type: organism-based; parameters: dose 120 mg/kg, route intravenous; conditions: in vivo
Mus musculus [8] = assay: Toxicity in albino mouse assessed as hypoactivity at 45 to 75 mg/kg, iv measured for 14 days; type: organism-based; parameters: dose 45-75 mg/kg, route intravenous; conditions: in vivo, 336 h
Escherichia coli [9] = assay: Antibacterial activity against clinical isolates of imipenem-resistant Escherichia coli PGI/DML02292 after overnight incubation by microdilution broth assay; type: functional
[10] = Membrane permeabilization activity assessed as release of calcein from liposomes after 5 mins by fluorescence assay
Mus musculus [11] = assay: Toxicity in albino mouse assessed as mortality latency at 150 mg/kg, iv; type: organism-based; parameters: dose 150 mg/kg, route intravenous; conditions: in vivo
[12] = Membrane permeabilization activity assessed as release of calcein from liposomes at 1:10 lipopeptide:lipid molar ratio after 5 mins by fluorescence assay
Escherichia coli [13] = assay: Antibacterial activity against clinical isolates of Escherichia coli PGI/DML02250 after overnight incubation by microdilution broth assay; type: functional
[14] = system: Staphylococcus epidermidis; assay: Antibacterial activity against clinical isolates of Staphylococcus epidermidis GMCH/B0057 after overnight incubation by microdilution broth assay; type: functional
Staphylococcus aureus [15] = assay: Antibacterial activity against Staphylococcus aureus PGI/DML03149 infected in Swiss albino mouse assessed as log reduction at 5 mg/kg administered twice at 1 hr and 5 hrs post infection relative to control; type: functional
Staphylococcus aureus [16] = assay: Antibacterial activity against clinical isolates of methicillin-resistant Staphylococcus aureus PGI/DML03149 after overnight incubation by microdilution broth assay; type: functional

With CCCCCCCCCCCCCC(=O)NC(CCCN)C(=O)NC(CCCN)C(=O)NC(CCCN)C(N)=O (stereo not drawn) as the compound, how does the FC (Staphylococcus aureus [1]) read?
The FC was 0.84.

What about the Activity (Mus musculus [2]) of the same compound?
The Activity was “Non-toxic”.

And the FC (Staphylococcus aureus [3])?
Its FC is 3.07.

What about the FC (Escherichia coli [4]) of the same compound?
Its FC is 3.68.

What about the mortality [5] of the same compound?
Its mortality is 0%.

What about the MIC (Haemophilus influenzae) of the same compound?
The MIC was 3.1 µg/mL (≈ 5.44 µM).

What about the MIC (Enterococcus faecalis) of the same compound?
Its MIC is 1.5 µg/mL (≈ 2.63 µM).

And the mortality [6]?
Its mortality is 60%.

What about the mortality [7] of the same compound?
Its mortality is 75%.

And the Activity (Mus musculus [8])?
The Activity was “Toxic”.

What about the MIC (Escherichia coli [9]) of the same compound?
Its MIC is 5.5 µg/mL (≈ 9.65 µM).

What about the Activity [10] of the same compound?
The Activity was “Dose-dependent effect”.

What about the Time (Mus musculus [11]) of the same compound?
The Time was greater than 48 h.

What about the Activity [12] of the same compound?
Its Activity is 91%.

What about the MIC (Escherichia coli [13]) of the same compound?
The MIC was 2 µg/mL (≈ 3.51 µM).

And the MIC [14]?
The MIC was 3.5 µg/mL (≈ 6.14 µM).

What about the FC (Staphylococcus aureus [15]) of the same compound?
The FC was 4.15.

What about the MIC (Staphylococcus aureus [16]) of the same compound?
The MIC was 3.1 µg/mL (≈ 5.44 µM).
